From patent publication US20240358692A1, “TREATMENT OF SCLERODERMA” (Aisa Pharma, Inc., priority 2023, published 2024)

Key:
[1] = test system: participants with SSc-RP; assay: SHAQ - Alternative Disability Index; format: in vivo, human
Excerpt: The SHAQ is used to calculate a Disability Index to assess the participant qualify of life. The eight categories assessed by the Disability Index are 1) dressing and grooming, 2) arising, 3) eating, 4) walking, 5) hygiene, 6) reach, 7) grip, and 8) common daily activities. For each of these categories, patients report the amount of difficulty they have in performing two or three specific activities.
There are four possible responses for the Disability Index questions: • Without any difficulty=0 • With some difficulty=1 • With much difficulty=2 • Unable to do=3 • The highest score reported by the patient for any component question of the eight categories determines the score for that category. • If a component question is left blank or the response is too ambiguous to assign a score, then the score for that category is determined by the remaining completed question(s). • If all component questions are blank or if more than one answer is given, then follow up with the respondent is required. • If the respondent's mark is between the response columns, then move it to the closest one. If it's directly between the two, move it to the higher one.
The aid and device variables are not used to calculate the alternative disability index; it is calculated by adding the scores for each of the categories and dividing by the number of categories answered. This gives a score in the 0 to 3 range.

[2] = test system: participants with SSc-RP; assay: SHAQ - Visual Analog Scale - Raynaud's; format: in vivo, human
Excerpt: The SHAQ includes a Raynaud's VAS, which will be reported at screening and each in-clinic visit. The absolute change in Raynaud-VAS, assessed by the participants response to the SHAQ question ‘In the past 7 days, how much have your Raynaud's interfered with your daily activities?’ at baseline and the end of each dosing period will be calculated similar to frequency data as before.
The standard, validated, patient reported outcome measures tool for SSc patients, the SHAQ, was collected at the time points specified in the study schedules (FIG. 2 and FIGS. 4A and 4B) to assess the participant's quality of life. The SHAQ included a Raynaud's VAS that will also be reported separately.

[3] = Modified ITT Population-Part A, Day 12, dose cilnidipine 10 mg, tadalafil 5 mg, alone or combined as labelled
[4] = Modified ITT Population-Part A, dose cilnidipine 10 mg, tadalafil 5 mg, alone or combined as labelled
[5] = Tadalafil 5 mg, SSc patients, PP, Part A

CN1CC(=O)N2[C@H](c3ccc4c(c3)OCO4)c3[nH]c4ccccc4c3C[C@@H]2C1=O [Tadalafil]
alternative disability index, Change from Baseline, Mean [1, 3]: −0.094
alternative disability index, Change from Baseline, Median [1, 3]: −0.125
alternative disability index, Percent Change from Baseline, Mean [1, 3]: −43.70%
alternative disability index, Percent Change from Baseline, Median [1, 3]: −20.00%
alternative disability index, In Clinic Visit (Day 12), Mean [1, 4]: 0.375
alternative disability index, In Clinic Visit (Day 12), Median [1, 4]: 0.250
SHAQ Alternative Disability Index, Change from Baseline, Max [1, 5]: 0.00
SHAQ Alternative Disability Index, Change from Baseline, Mean [1, 5]: −0.094
SHAQ Alternative Disability Index, Change from Baseline, Median [1, 5]: −0.125
SHAQ Alternative Disability Index, Change from Baseline, Min [1, 5]: −0.13,
SHAQ Alternative Disability Index, Change from Baseline, Q3 [1, 5]: −0.063
SHAQ Alternative Disability Index, Day 12, Max [1, 5]: 1.00
SHAQ Alternative Disability Index, Day 12, Mean [1, 5]: 0.375
SHAQ Alternative Disability Index, Day 12, Median [1, 5]: 0.250
SHAQ Alternative Disability Index, Day 12, Min [1, 5]: 0.00,
SHAQ Alternative Disability Index, Day 12, Q1 [1, 5]: 0.000,
SHAQ Alternative Disability Index, Day 12, Q3 [1, 5]: 0.750
SHAQ Alternative Disability Index, Percent Change from Baseline, Max [1, 5]: −11.1
SHAQ Alternative Disability Index, Percent Change from Baseline, Mean [1, 5]: −43.70
SHAQ Alternative Disability Index, Percent Change from Baseline, Median [1, 5]: −20.00
SHAQ Alternative Disability Index, Percent Change from Baseline, Min [1, 5]: −100.0,
SHAQ Alternative Disability Index, Percent Change from Baseline, Q1 [1, 5]: −100.00,
SHAQ Alternative Disability Index, Percent Change from Baseline, Q3 [1, 5]: −11.11
SHAQ Visual Analogue Scale - Raynaud's, Change from Baseline, Median ([2]; Tadalafil 5 mg (N = 5), Day 12, PP Population, Part A): −0.500
VAS Raynaud's Change from Baseline Max ([2]; tadalafil 5 mg): −0.10
VAS Raynaud's Change from Baseline Mean ([2]; tadalafil 5 mg): −0.825
VAS Raynaud's Change from Baseline Median ([2]; tadalafil 5 mg): −0.500
VAS Raynaud's Change from Baseline Min ([2]; tadalafil 5 mg): −2.20
VAS Raynaud's Change from Baseline Q1 ([2]; tadalafil 5 mg): −1.500
VAS Raynaud's Change from Baseline Q3 ([2]; tadalafil 5 mg): −0.150
VAS Raynaud's Day 12 Max ([2]; tadalafil 5 mg): 9.20
VAS Raynaud's Day 12 Median ([2]; tadalafil 5 mg): 5.200
VAS Raynaud's Day 12 Min ([2]; tadalafil 5 mg): 0.20
VAS Raynaud's Day 12 Q1 ([2]; tadalafil 5 mg): 2.200
VAS Raynaud's Day 12 Q3 ([2]; tadalafil 5 mg): 7.700
VAS Raynaud's Percent Change from Baseline Max ([2]; tadalafil 5 mg): −3.1%
VAS Raynaud's Percent Change from Baseline Mean ([2]; tadalafil 5 mg): −19.71%
VAS Raynaud's Percent Change from Baseline Median ([2]; tadalafil 5 mg): −20.67%
VAS Raynaud's Percent Change from Baseline Min ([2]; tadalafil 5 mg): −34.4%
VAS Raynaud's Percent Change from Baseline Q1 ([2]; tadalafil 5 mg): −33.85%
VAS Raynaud's Percent Change from Baseline Q3 ([2]; tadalafil 5 mg): −5.56%
